According to patent publication US20070149466A1, “Methods and related compositions for treating or preventing obesity, insulin resistance disorders, and mitochondrial-associated disorders” (priority 2005, published 2007):

Tests used:
male C57BL/6J mice [1] = test: Diet induced obesity (DIO) mouse model: body weight, food intake, body fat content (dexa scanning); assay type: in vivo; conditions: resveratrol 400 mg/kg/day co-administered with a high fat diet
Experimental: The mice undergo an extensive phenotypic and molecular analysis to define the regulatory pathways affected by Sirt-1 activation.
(§1) In this long-term study, 50 male C57BL6J mice (5 weeks of age) are analyzed during a period of 18 weeks.
During the entire study, body weight and food intake
are monitored twice weekly.
During week 1, body composition is analyzed, for all groups, by dual energy X-ray absorptiometry (dexascan).
During week 12, body weight composition is again analysed by dexascan for all groups.
Diet. The standard rodent chow diet is obtained from UAR and the high fat diet is obtained from Research Diet. Mice are fed, either with chow diet (16% protein, 3% fat, 5% fiber, 5% ash) or with high fat diet (26.2% protein, 26.3% carbohydrate, 34.9% fat). Resveratrol is mixed with either powdered chow diet or powdered high fat diet and pellets are reconstituted. Control groups receive pellets as provided by the company. Due to the consistency of the high fat diet, it is not necessary to add water to mix it with the resveratrol. […]
Determination of body fat content by Dexa scanning. […] Bone mineral density (BMD in g/cm^2) and body composition are determined by using the PIXIMUS software (version 1.4x, GE Medical Systems).
The bottom panels show comparisons of body fat content, as analyzed by dexa scanning, at […] of treatment for mice in the four dietary groups. […]

male C57BL/6J mice [2] = test: Energy expenditure by indirect calorimetry (oxygen consumption) in DIO mice; assay type: in vivo; conditions: 400 mg/kg/day co-administrated with a high fat diet
Experimental: Nocturnal energy expenditure of groups 1, 3 and 5 (chow diet, high fat diet and high fat diet 400 mg) is measured by indirect calorimetry. Energy expenditure. Energy expenditure is evaluated through indirect calorimetry by measuring oxygen consumption with the Oxymax apparatus (Columbus Instruments, Columbus, Ohio) during 12 h. This system consists of an open circuit with air coming in and out of plastic cages (one mouse per cage). Animals are allowed free access to food and water. A very precise CO2 and O2 sensor measures the difference in O2 and CO2 concentrations in both air volumes, which gives the amount of oxygen consumed in a period of time given that the air flow of air coming in the cage is constant. The data coming out of the apparatus are processed in a connected computer, analyzed, and shown in an exportable Excel file. The values are expressed as ml.kg^−1.h^−1, which is commonly known as the VO2.

male C57BL/6J mice [3] = test: Circadian (spontaneous locomotor) activity in DIO mice; assay type: in vivo; conditions: 400 mg/kg/day, high fat diet
Experimental: During week 13, circadian activity of groups 3, 4 and 5 (high fat diet fed mice) is studied during a period of […]. A circadian activity measurement is performed on groups […]. Spontaneous locomotor activity is measured using individual boxes, each composed with a sliding floor, a detachable cage, and equipped with infra-red captors allowing measurement of ambulatory locomotor activity and rears. Boxes are linked to a computer using an electronic interface (Imetronic, Pessac, France). Mice are tested for 32 h in order to measure habituation to the apparatus as well as nocturnal and diurnal activities. The quantity of water consumed is measured during the test period using an automated lickometer.

[4] = test system: high fat diet fed C57BL/6J mice; test: Intraperitoneal and oral glucose tolerance tests in DIO mice; assay type: in vivo; conditions: 400 mg/kg/day, IPGTT and OGTT 2 g glucose/kg
Experimental: During week 10, glucose tolerance is determined by subjecting all the animals to an intraperitoneal glucose tolerance test (IPGTT). Animals are fasted for 12 h prior to this test. During week 16, glucose tolerance is analysed by performing an oral glucose tolerance test (OGTT) on a subset of animals (n=5) of groups 3, 4 and 5, and an intraperitoneal insulin sensitivity test (IPIST) on another subset of animals (n=5). During these experiments, blood is also collected to analyze insulin levels. Animals are fasted 12 h prior these tests. Intraperitoneal glucose tolerance test—Oral glucose tolerance test. IPGTT and OGTT are performed in mice which are fasted overnight (12 h). Mice are either injected intraperitoneally (IPGTT) or orally gavaged (OGTT) with a solution of 20% glucose in sterile saline (0.9% NaCl) at a dose of 2 g glucose/kg body weight. Blood is collected from the tail vein, for glucose and insulin monitoring, prior to and at 15, 30, 45, 75, 90, 120, 150, 180 min after administration of the glucose solution. The incremental area of the glucose curve is calculated as a measure of insulin sensitivity, whereas the corresponding insulin levels indicate insulin secretory reserves.

male C57BL/6 mice = test: Cold test (body temperature at 4° C.) in DIO mice; assay type: in vivo; conditions: 400 mg/kg/day coadministered with a high fat diet, p<0.05
Experimental: During week 18, a cold test is performed on all animals by measuring body temperature of animals exposed to 4° C.

[5] = Tolerability of resveratrol as a food additive; assay type: in vivo
Experimental: as §1

[6] = test system: Zucker diabetic fatty rats; test: Zucker diabetic rat model, 42 days oral dosing; assay type: in vivo; conditions: for daily body weights / food intake: 200 mg/kg orally twice a day, 43 days, vs vehicle and other groups; for fasting serum glucose levels: day 8, 15, 22, 29, 36 and 43, 200 mg/kg orally twice a day
Experimental: Groups of 8 rats were used for each group (6 weeks old, 190±10 grams). […] Blood samples were collected from the retro-orbital sinus 35 minutes before glucose load (Fasting glucose) and 90 minutes post oral glucose load. Serum glucose levels were determined by means of a Hitachi Model 750 Automatic Analyzer.

mice [7] = test: Serum biochemical analysis in DIO mice; assay type: in vivo; conditions: 16 weeks, high fat plus 400 mg/kg/day
Experimental: Diet induced obesity was established in mice as described above in Example 1.
The values shown are based on an average of measurements from 10 animals for each dietary group. Levels of total cholesterol, HDL-cholestrol, LDL-cholesterol, triglycerides, free fatty acids, aspartate aminotransferase […], alanine aminotransferase (ALAT), and alkaline […] (ALP) were determined using standard procedures. ASAT, ALP and ALAT were measured by kinetic UV and colour tests using methods based on the recommendations of the ‘International Federation for Clinical Chemistry’ (IFCC) on an Olympus AU-400 automated laboratory work station. AST was quantified using the OSR6109 reagent system which is based on the activity of AST that catalyzes the transamination of aspartate and 2-oxoglutarate to L-glutamate and oxalacetate. […] The decrease in absorbance due to the consumption of NADH is measured at […] and is proportional to the AST activity in the sample. ALT was quantified using the OSR6107 reagent system which is based on the activity of ALT that transfers the amino group from alanine to 2-oxoglutarate to form pyruvate and glutamate. […] As with the AST measurement, consumption of NADH is measured at […] and is proportional to the amount of ALT activity in the sample. ALP is measured by determining the rate of conversion of p-nitro-phenyl phosphate to p-nitrophenol (pNP). […]

mice [8] = test: Hematoxylin and eosin staining of tissue sections of DIO mice; assay type: in vivo; conditions: 16 weeks, high fat plus 400 mg/kg/day vs control and high fat diets
Experimental: After collection, tissues were fixed in 4% paraformaldehyde, processed and embedded in paraffin prior to sectioning (10 microns) and staining. Tissue processing, paraffin embedding, tissue sectioning and hematoxylin and eosin staining of histological sections were carried out using standard procedures and commercially available materials (see e.g., McManus J. F. A. and Mowry, R. W., Staining Methods. Histologic and Histochemcial, Harper and Row, New York 1960; Luna L. G., Hitopathological Methods and Color Atlas of Special Stains and Tissue Artifacts, Johnson Printers, Downers Grove, Ill. 1992; Gabe M., Techniques histologiques. Masson, Paris 1968; and world wide web at statlab.com).

mice [9] = test: Succinate dehydrogenase staining of brown adipose tissue and muscle of DIO mice; assay type: in vivo; conditions: 16 weeks, HF+R400 vs HF diet
Experimental: Succinate dehydrogenase is a marker of mitochondrial activity and produces a dark stain in the photos. Tissues were collected and immediately frozen in methylbutane, then kept at −80° C. prior to sectioning and staining. Succinate Dehydrogenase staining was carried out using standard procedures and commercially available reagents (see e.g., Reichmann H and Wildenauer D, Histochemistry, 96: 251-3 (1991)).

mice [10] = test: Transmission electron microscopy of gastrocnemius muscle and brown adipose tissue of DIO mice; assay type: in vivo; conditions: 16 weeks
Experimental: Transmission electron microscopy was carried out using standard techniques as described below. The mitochondria can be seen as the darker oblong Z lines crossing the I lines.
Transmission electron microscopy was carried out using standard techniques as described below. Fat droplets may be observed at either magnification as white or light gray droplets and mitochondria can be observed at the higher magnification as roundish striated structures.
Transmission Electronic Microscopy/Preparation of Samples: The biopsies of gastrocnemius muscle and brown adipose tissue were cut in pieces of 1 mm and fixed immediately after collection in Kamovsky fixative (glutaraldehyde in cacodylate buffer) and kept at 4° C. without time limitation. The second step is the post-fixation with 1% osmium tetraoxide in 0.1M cacodylate buffer for 1 h at 4° C. Tissues were then dehydrated through successive baths of graded alcohol followed by a propylene oxide bath, and then a treatment with a propylene oxide and resine mix before to be embedded in a pure epoxy resine (araldite, Epon 812) which becomes solid after 48 h at 60° C. Semithin sections were cut at 2 μm and stained with toluidine blue, and histologically analysed by light microscopy. Ultrathin sections were cut at 70 nm and contrasted with uranyl acetate and lead citrate, and examined with a Philips 208 electron microscope.

PGC1 alpha = test: Immunoblot of PGC1 alpha acetylation in gastrocnemius muscle nuclear extracts; assay type: in vivo, mice; conditions: high fat diet plus 400 mg/kg resveratrol vs high fat diet, 15 weeks
Text: Following immunoprecipitation with a PGC 1 alpha antibody (Santa Cruz Biotechnology, cat #SC-13067), secondary western blots were probed with either a acetylated lysine specific monoclonal (Cell Signaling Technology, Cat #9441; top left panel) or a PGC1alpha antibody (Santa Cruz Biotechnology, cat #SC-13067; lower left panel). Exposures were scanned and the acetylation status of PGC1alpha compared to total PGC1alpha of animals on either the HF or HF+[…] is shown in the right hand panel.

HDAC = conditions: cited from earlier work; for concentration at which HDAC is inhibited: literature statements, in vitro or in vivo for SAHA, SBHA, CBHA
[11] = high fat diet plus 400 mg/kg/day resveratrol

For `Oc1ccc(/C=C/c2cc(O)cc(O)c2)cc1` [resveratrol, 3,5,4′-Trihydroxy-trans-stilbene], the diet-induced obesity (male C57BL/6J mice [1]) was “prevents diet-induced obesity”, the energy expenditure (male C57BL/6J mice [2]) was “increases energy expenditure” and the circadian locomotor activity (male C57BL/6J mice [3]) was “significantly diminishes the circadian locomotor activity”. The glucose tolerance [4] was “increases glucose tolerance”, the “adaptive thermogenesis (body temperature during 6 h cold test)” value (male C57BL/6 mice) was “enhances adaptive thermogenesis” and the food aversion [5] was “does not cause food aversion”. For the same molecule, the tolerability [5] was “well tolerated”, the daily body weights [6] was “no statistical difference” and the food intake [6] was “no statistical difference”. The “fasting serum glucose levels” value [6] was “no difference”, the “serum biochemical markers (total, HDL and LDL cholesterol, triglycerides, free fatty acids, ASAT, ALAT, ALP)” value (mice [7]) was “fell within the normal range” and the “histological changes (liver, epididymal WAT, BAT, gastrocnemius muscle; hematoxylin and eosin)” value (mice [8]) was “few histological changes”. For the same molecule, the “succinate dehydrogenase staining (marker of mitochondrial activity), brown adipose tissue” value (mice [9]) was “significantly higher”, the “succinate dehydrogenase staining (marker of mitochondrial activity), gastrocnemius” value (mice [9]) was “significantly higher” and the “succinate dehydrogenase staining, soleus” value (mice [9]) was “little change”. The “mitochondria in gastrocnemius muscle (non-oxidative fibers), transmission electron microscopy” value (mice [10]; HF+R400 vs control or high fat diets) was “more mitochondria”, the “fat droplets in brown adipose tissue, transmission electron microscopy” value (mice [10]; [11]) was “smaller fat droplets” and the “mitochondria in brown adipose tissue, transmission electron microscopy” value (mice [10]; [11]) was “more mitochondria”. The PGC1 alpha deacetylation (PGC1 alpha) was “increases PGC1 alpha deacetylation”.

In the case of `C/C=C1\NC(=O)[C@H]2CSSCC/C=C/[C@H](CC(=O)N[C@H](C(C)C)C(=O)N2)OC(=O)[C@H](C(C)C)NC1=O` [Depsipeptide], the “concentration at which HDAC is inhibited” value (HDAC) is listed as “micromolar concentrations”.

In the case of `O=C(/C=C/c1cccc(C(=O)NO)c1)NO` [CBHA, m-carboxy-cinnamic acid bishydroxamic acid], the “concentration at which HDAC is inhibited” value (HDAC) is given as “micromolar concentration or lower”.

In the case of trichostatin A [TSA], the “inhibition of mammalian HDAC” value (HDAC; Yoshida et al. (1990)) is listed as “potent inhibitor”.

For `CN(C)C(=N)N=C(N)N` [metformin, reference compound], the daily body weights [6] was “no statistical difference”, the food intake [6] was “no statistical difference” and the “fasting serum glucose levels” value [6] was “no difference”.

For depudecin, the “concentration at which HDAC is inhibited” value (HDAC) is given as “micromolar concentrations”.
